Measured values published in patent publication US8815946B2, “Inhibition of proliferation and fibrotic response of activated corneal stromal cells” (University of Pittsburgh—of the Commonwealth System of …, priority 2008, dated 2014).

Columns and labels:
[1] = cited from earlier work
[2] = tested on: extracellular matrix genes; assay: Microarray analysis (Affymetrix U133 Plus 2.0) of corneal stromal cells; format: cell-based, human
Method: Total RNA was processed and analyzed using the appropriate Affymetrix products (Affymetrix Inc., Santa Clara, Calif.). Eukaryote Poly A RNA internal standards (GeneChip® Poly-A RNA Control Kit from Affymetrix Inc.) were added to the samples, and the mRNA component of the total RNA was reverse-transcribed in the presence of a T7-(dT)24 primer (GeneChip® One-Cycle cDNA Synthesis Kit from Affymetrix Inc.). The resulting cDNA was extracted (GeneChip® Sample Cleanup Module from Affymetrix Inc.) and transcribed in vitro in the presence of biotin-labeled ribonucleotides (Labeling Kit from Affymetrix Inc.). The biotinylated RNA was extracted and fragmented (GeneChip® Sample Cleanup Module from Affymetrix Inc.: 20 μg material fragmented for 35 minutes at 94° C.). Each sample was hybridized overnight to a U133 PLUS™ 2.0 GeneChip (GeneChip® Human Genome U133 Plus 2.0 Array from Affymetrix Inc.). The chips were then washed, developed and scanned in Agilent CHIPSCANNER™ (Affymetrix Inc., Santa Clara, Calif.). Raw data was processed and analyzed using Affymetrix GENECHIP™ Operating System (GCOS) v 1.0.
The U133 PLUS™ 2.0 GeneChips contain 54,675 panels, each targeting a specific transcript sequence. Approximately 20,600 gene products identified by Entrez Gene numbers are redundantly targeted by 46,000 panels: the remaining panels target products which are less well characterized. Affymetrix GCOS™1.0 software was used to assess the presence or absence of the target sequence of each panel. Expression levels were normalized so that the mean for each sample was equal to the global mean for all samples. Panels, which were absent for every sample in either experiment, were omitted from further consideration. This left 23284 panels encoding 12258 unique, characterized (Entrez Gene) genes.
In earlier work, the changes in the gene expression upon activation of keratocyte to myofibroblast phenotype induced by TGF-β1 was studied. In the present analysis, as a cross check the present, consistent TGFβ-evoked (>2-fold) increases were checked with the previous data. Transition from keratocytes to fibroblasts increased 520 panels, and decreased 700 panels. The 599 unique, characterized genes so altered were compared with a previously acquired database of 873 genes known to be altered by phenotypic transition either from keratocyte to fibroblast or from fibroblast to myofibroblast. The number of genes concordant between these sets was 170, 4.9-fold greater than random chance (p=1.65×10^−130, chi-squared test). Extracellular matrix components: 244 panels (143 unique genes) with the Gene Ontology Cellular Component code 5578 (extracellular matrix) were selected. Of these, 28 were TGFβ-1 modulated in the present experiment and 49 were Consistent 5-fold increases in myofibroblasts.
In Table 1 are ECM genes altered by phenotype change, which are also affected by ethyl pyruvate. Genes in bold were altered during phenotype shifts only in previous experiments, genes in italics were altered by phenotype shift only in the present experiment, and genes in normal font were altered by phenotype shifts in both present and prior experiments.

[3] = tested on: type III collagen, tenascin and fibronectin; assay: Western blot of TGF-β1 activated rabbit corneal keratocytes: type III collagen, tenascin, fibronectin; format: cell-based; settings: TGF-β1 (10 ng/ml)+1% FBS, two days, compared to controls with no treatment
Method: FIGS. 19A and 19B. Western blot analyses: Rabbit corneal keratocytes were isolated and cultured in serum-free DMEM/F12 into 60 mm tissue culture dishes. After 24 hrs of incubation, the media were replaced with DMEM/F12 medium containing TGF-β1(10 ng/ml)+1% FBS without (control) or with EP or EP-derivatives for two days. The cells were extracted in RIPA buffer and the extracts containing 5 μg of total proteins were loaded per lane for Western blot analysis.
Keratocytes or fibroblasts grown under different culture conditions were extracted in RIPA buffer (9.1 mM dibasic sodium phosphate, 1.7 mM monobasic sodium phosphate, 150 mM NaCl, pH, 7.4, 1% Nonidet P-40, 0.5% sodium deoxycholate, 0.1% SDS, 0.03 TIU/mL aprotinin, 1 mM sodium orthovanadate, and 100 μg/mL phenylmethylsulfonyl fluoride (PMSF)). Aliquots of cell extracts containing 50 or 100 μg protein were subjected to SDS-PAGE. Protein bands on SDS-PAGE were electrophoretically transferred to IMMOBILON-P™ membrane (Millipore Corp., Bedford, Mass.), stained with 0.1% Coomassie blue 250 in 40% methanol/1% acetic acid for 1 minute, destained one to three times with 50% methanol/1% acetic acid, scanned for densitometric comparisons of relative concentrations of proteins per lane, destained with methanol, and subjected to Western blot analysis. Immunoreactive bands were detected using chemiluminescence Western chemiluminescence reagents.
As described in Example 1, corneal stromal cells were isolated from rabbit corneas and cultured using the same procedures. The keratocytes in serum free media were treated with b-FGF (40 ng/ml)+HS (5 μg/ml) with or without 15 mM EP or 1, 2.5 or 5 mM following EP derivatives: 2-oxopropionic acid 3-methoxyphenyl ester, 2-oxopropionic acid 2-ethoxyethyl ester, 2-oxopropionic acid 2-chloroethyl ester, 2-oxopropionic acid isopropyl ester, 2-oxopropionic acid butyl ester, 2-oxopropionic acid p-tolyl ester, 2-oxopropionic acid tert-butyl ester. […] The relative levels of the expression of specific proteins were analyzed by Western blot analyses of the cell lysates as described supra.

[4] = three consistent (2-fold) changes of four potential
[5] = two consistent (2-fold) changes of four potential

SMILES: CCOC(=O)C(C)=O [ethyl pyruvate]
- time to diffuse into the aqueous humor ([1]; applied on the surface of the eye): ≤ 15 min
- entry into the anterior chamber ([1]; diffuses through conjunctival tissue or into corneal stroma): within minutes
- elimination half-life ([1]; in vivo): approximately 90 minutes
- latent transforming growth factor beta binding protein 1 expression change ([2]; four consistent (2-fold) changes of four potential): (−4.1)
- consistent increase of RGC32, HMOX1, GDF15 and TRIB3 expression ([2]; myofibroblasts, only four characterized genes): 5 fold
- Tissue factor pathway inhibitor 2 expression change [2, 4]: (−4.8)
- collagen, type III, alpha 1 expression change [2, 4]: alpha 1 (−4.9)
- collagen, type X, alpha1 expression change [2, 4]: alpha1 (−8.1)
- laminin, beta 1 expression change [2, 4]: (−3.8)
- matrix metallopeptidase 10 (stromelysin 2) expression change [2, 4]: (stromelysin 2) (3.8)
- periostin, osteoblast specific factor expression change [2, 4]: specific factor (−9.7)
- secreted phosphoprotein 1 (osteopontin) expression change [2, 4]: (osteopontin) (2.7)
- Collagen, type VIII, alpha 1 expression change [2, 5]: alpha 1 (−4.0)
- EGF-containing fibulin-like extracellular matrix protein1 expression change [2, 5]: (−2.6)
- SPARC-like 1 expression change [2, 5]: SPARC-like 1 (−3.3)
- chondroitin sulfate proteoglycan 2 (versican) expression change [2, 5]: (versican) (−5.9)
- collagen triple helix repeat containing 1 expression change [2, 5]: containing 1 (−4.3)
- collagen, type I, alpha 2 expression change [2, 5]: alpha 2 (−2.7)
- collagen, type V, alpha 1 expression change [2, 5]: alpha 1 (−6.2)
- collagen, type VIII, alpha 2 expression change [2, 5]: alpha 2 (−3.8)
- collagen, type XII, alpha1 expression change [2, 5]: alpha1 (−2.8)
- fibronectin 1 expression change [2, 5]: fibronectin 1 (−2.3)
- heparan sulfate proteoglycan 2 (perlecan) expression change [2, 5]: (perlecan) (−3.0)
- laminin, alpha 4 expression change [2, 5]: (−2.4)
- lysyl oxidase expression change [2, 5]: lysyl oxidase (−4.0)
- matrix metallopeptidase 1 (interstitial collagenase) expression change [2, 5]: collagenase) (5.9)
- secreted protein, acidic, cysteine-rich (osteonectin) expression change [2, 5]: (osteonectin) (−8.4)
- tenascin C (hexabrachion) expression change [2, 5]: (hexabrachion) (−7.4)
- collagen, type I, alpha 1 expression change ([2]; two consistent (2-fold) ethyl pyruvate changes of four potential (2 phenotypes, 2 experiments)): alpha 1 (−2.9)
- levels of type III collagen, tenascin and fibronectin (Western blot) [3]: reduced levels
